# Results: patent US8822541B2, “Use of targeted nitroxide agents in mitigating or treating radiation injury” (University of Pittsburgh—Of the Commonwealth System of …, priority 2008, dated 2014)
# Entries after “also recorded” stand apart in the source; their conditions may differ.
# What was measured:
# Ercc1−/Δ mice = test: Signs of aging in progeroid Ercc1−/Δ mice; format: in vivo, mouse; conditions: 2 mg/kg ip three times per week
# Procedure: To assess the effectiveness of XJB-5-131 in inhibiting degeneration and/or signs of aging, the compound was administered, over an 18-21 week period, progeroid
# Ercc1^−/Δ mice, at a dose of 2 mg/kg in sunflower oil carrier (to promote solubility) administered intraperitoneally three times per week (FIG. 32). Sunflower seed oil was administered to twin Ercc1^−/Δ mice according to the same schedule as a control. The treated and control mice were monitored twice a week for weight and symptom/sign development.
# FIG. 33 presents a summary table showing the results of the treatment with XJB-5-131 (“XJB” in this Figure), relative to control (sunflower seed oil) after treatment from 5 wks of life until death. The numbers indicate the average age at onset of each age-related symptom for mice treated with XJB-5-131 or vehicle only (oil) (n=5 mice per group). […] Of note, all of the signs of neurodegeneration, including dystonia, trembling, ataxia, wasting and urinary incontinence were delayed in the treated animals, providing strong evidence that XJB-5-131 protects neurons against degenerative changes caused by oxidative stress.
# To assess the ability of XJB-5-131 to inhibit deterioration of intervertebral discs (an index of degenerative disease of the vertebra), the level of glycosaminoglycan in the discs in treated and control mice were measured, and the results are shown in FIG. 34. The intervertebral discs of treated mice contained approximately 30 percent more glycosaminoglycan relative to control mice, indicating inhibition of disc degeneration.
# caspases 3 and 7 = test: Caspases 3 and 7 activity in gut mucosa after hemorrhagic shock; format: in vivo, rat; conditions: 10 μM intraluminal, vs vehicle
# Procedure: Caspases 3 and 7 activity assay. Caspases 3 and 7 activity was measured using a commercially available assay kit, Caspase GIo™ 3/7 assay kit (Promega, Madison, Wis.). Briefly, 50 μl of rat gut mucosa homogenate (20 jug protein) was mixed with 50 μl of Caspase-Glo™ reagent and incubated at room temperature for 1 hour. At the end of incubation period, the luminescence of each sample was measured using a plate reading chemiluminometer (ML1000, Dynatech Laboratories, Horsham, Pa.). Activity of caspases 3 and 7 was expressed as luminescence intensity (arbitrary units per mg protein). Protein concentrations were determined using the BioRad assay (Bio-Rad Laboratories, Inc., Hercules, Calif.).
# In the subsequent series of in vivo studies, the affect of intraluminal XJB-5-131 on hemorrhage-induced peroxidation of phospholipids in intestinal mucosa was examined. […] In a preferred embodiment, 0.3 mL of test solution filled the lumen of each ileal compartment.
# After two hours of HS, samples of ileal mucosa from the gut sacs filled with the vehicle and XJB-5-131 were obtained and compared with ileal mucosa of normal MECs. All samples were assayed with caspase 3 or caspase 7 activity as well as the peroxidation of phosphatidylcholine (“PC”), phosphatidylethanolamine (“PE”), phosphatidylserine (“PS”), and cardiolipin (“CL”), summarized in FIG. 7.
# rat ileal mucosa = test: Intestinal mucosal permeability assay (FD4) after hemorrhagic shock; format: in vivo; conditions: intraluminal
# Procedure: Intestinal mucosal permeability assay. Animals were allowed access to water but not food for 24 h prior to the experiment in order to decrease the volume of intestinal contents. The rats were instrumented as described above. A midline laparotomy was performed and the small intestine was exteriorized from the duodenojejunal junction to the ileocecal valve. A small incision was made on the antimesenteric aspect of the proximal small intestine and saline solution (1.5 ml) was injected. The bowel was ligated proximally and distally to the incision with 4-0 silk (Look, Reading, Pa.).
# The small intestine was compressed gently in aboral direction along its length to displace intestinal contents into the colon. Starting 5 cm from the ileocecal valve, the ileum was partitioned into six contiguous water-tight segments. […]
# The remaining four other segments were injected with solutions containing either 4-hydroxy-2,2,6,6-tetramethylpiperidine-N-oxyl (TEMPOL) or one of the Gramicidin S-based compounds. Four different final concentrations of TEMPOL in normal saline were evaluated: 0.1, 1, 5 and 20 mM. […]
# Fluorescence of FD4 in the solution inside the beaker and within each gut sac was measured using a fluorescence spectrophotometer (LS-50, Perkin-Elmer, Palo Alto, Calif.) at an excitation wavelength of 492 nm and an emission wavelength of 515 nm. […]
smiles,measurement,setting,value
CC(C)C[C@@H](/C=C/[C@H](Cc1ccccc1)C(=O)N1CCC[C@H]1C(=O)N[C@H](C(=O)N[C@@H](CCCNC(=O)OCc1ccccc1)C(=O)NC1CC(C)(C)N([O])C(C)(C)C1)C(C)C)NC(=O)OC(C)(C)C [XJB-5-131],body weight,Ercc1−/Δ mice,did not lose weight; also recorded: does not cause weight loss
same,glycosaminoglycan in intervertebral discs relative to control mice,Ercc1−/Δ mice,approximately 30 percent more
same,"onset of signs of neurodegeneration (dystonia, trembling, ataxia, wasting, urinary incontinence)",Ercc1−/Δ mice,delayed
same,overall aging score,Ercc1−/Δ mice,significantly improved
same,caspase 3 and 7 activity after hemorrhagic shock,caspases 3 and 7,significantly decreased
same,hemorrhagic shock-induced mucosal hyperpermeability relative to control,rat ileal mucosa,approximately 60 % of the control value
same,potency relative to TEMPOL,rat ileal mucosa,~1000 fold
